{
  "source": "patent US20230373989A1",
  "about": "“N-PHENYLAMINOCARBONYL PYRIDINO-, PYRIMIDINO AND BENZO-TROPANES AS MODULATORS OF GPR65” (PATHIOS THERAPEUTICS LIMITED, priority 2020, published 2023)",
  "data": [
    {"target": "T1, human recombinant GPR65 (Homo sapiens, UniProt Q8IYL9)", "T1 construct": "host or cells: 1321N1 human astrocytoma cells (1321N1-hrGPR65)", "T1 sequence (Q8IYL9 whole entry)": "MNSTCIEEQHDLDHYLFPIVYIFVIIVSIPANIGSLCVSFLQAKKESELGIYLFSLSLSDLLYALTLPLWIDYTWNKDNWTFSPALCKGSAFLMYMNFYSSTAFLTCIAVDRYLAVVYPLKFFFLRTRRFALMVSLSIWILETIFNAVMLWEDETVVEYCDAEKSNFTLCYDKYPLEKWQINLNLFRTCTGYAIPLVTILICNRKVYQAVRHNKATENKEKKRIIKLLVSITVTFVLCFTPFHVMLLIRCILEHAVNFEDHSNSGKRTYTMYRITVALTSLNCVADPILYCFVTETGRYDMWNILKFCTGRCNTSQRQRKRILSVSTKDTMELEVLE", "assay": "Human GPR65 cAMP HTRF antagonist assay", "type": "cell-based", "conditions": "not given", "excerpt": "(§1) In one preferred embodiment, the compound prevents the increase in cytoplasmic cAMP levels expected following GPR65 activation at acidic pH. This prevention of cAMP accumulation in turn prevents downstream signalling through ICER, as described above. The “Human GPR65 cyclic adenosine monophosphate (cAMP) Homogeneous Time Resolved Fluorescence (HTRF) antagonist assay”, or simply “cAMP assay”, as described in the accompanying examples, can be used to measure the potency of GPR65 modulators, which is expressed as the concentration of compound required to reduce the increase in cAMP concentration upon GPR65 activation by 50% (i.e. an IC50).\n(§2) Human GPR65 Cyclic Adenosine Monophosphate (cAMP) Homogeneous Time Resolved Fluorescence (HTRF) Antagonist Assay Procedure\n(§3) IC50 data was obtained by the following procedure:\n(§4) 1321N1 human astrocytoma cells stably expressing human recombinant GPR65 (1321N1-hrGPR65 cells, EuroscreenFast) were cultured according to the vendor's instructions.\n(§5) Compounds were tested for their ability to antagonise GPR65, through measuring the concentration of cytoplasmic cAMP following treatment of the cells at a pH of 7.2 to activate GPR65 signalling and addition of the compound to be tested. The extent to which the expected rise in cAMP concentration upon GPR65 activation was suppressed by the added compound is indicative of its potency. The assay was carried out according to EuroscreenFast assay methodology as follows.\n(§6) On the day of the assay, test compounds were added to 384-well, low volume, white microtiter plates by acoustic dispensing. KRH buffer (5 mM KCl, 1.25 mM MgSO4, 124 mM NaCl, 25 mM HEPES, 13.3 mM Glucose, 1.25 mM KH2PO4 and 1.45 mM CaCl2) was adjusted to pH 6.5, pH 7.6 and pH 8.4 by adding NaOH. 1321N1-hGPR65 cells were rapidly thawed and diluted in KRH, pH 7.6 prior to centrifugation at 300×g for 5 min and resuspension in assay buffer (KRH, pH 7.6, supplemented with 1 mM 3-isobutyl-1-methylxanthine (IBMX) and 200 μM ethylenediaminetetraacetic acid (EDTA)). Cells were added to assay plates at a density of 2,000 cells per well in a volume of 5 μl. Assay plates were briefly centrifuged at 100×g and then incubated at room temperature for 30 min. Cells were stimulated by the addition of 5 μL KRH, pH 6.5, to achieve an assay pH of 7.2, while control wells received 5 μl KRH, pH 8.4 to achieve an assay pH of 7.9. Assay plates were briefly centrifuged at 100×g and then incubated at room temperature for 30 min.\n(§7) Accumulation of cAMP was detected by cAMP HTRF kit (Cisbio). d2-labeled cAMP and cryptate-labeled anti-cAMP antibody in Lysis and Detection Buffer (Cisbio) were added to assay plates, and the plates were incubated at room temperature for 1 h. HTRF measurements were performed using a Pherastar FSX instrument. Acceptor and donor emission signals were measured at 665 nm and 620 nm, respectively, and HTRF ratios were calculated as signal665 nm/signal620 nm×104. Data were normalised to high and low control values and fitted with 4-parameter logistic regression to determine hGPR65 IC50 values for the test compounds, which are shown in Table 1.", "units": {"IC50": "nM"}, "values": [
      {"smiles": "O=C(Nc1ccc(C(F)(F)F)c(Cl)c1)N1C2CCC1c1ccc(F)cc1C2", "note": "(racemic) [Compound 75, (±)-N-(3-Chloro-4-(trifluoromethyl)phenyl)-2-fluoro-6,7,8,9-tetrahydro-5H-5,8-epiminobenzo[7]annulene-10-carboxamide]", "IC50": "< 500"},
      {"smiles": "O=C(Nc1ccc(C(F)(F)F)c(Cl)c1)N1C2CCC1c1ccncc1C2", "note": "(racemic) [Compound 35, (±)-N-(3-Chloro-4-(trifluoromethyl)phenyl)-6,7,8,9-tetrahydro-5H-5,8-epiminocyclohepta[c]pyridine-10-carboxamide]", "IC50": "< 500"},
      {"smiles": "O=C(Nc1cc(Cl)c(Cl)cc1F)N1[C@H]2CC[C@@H]1c1c(F)cncc1C2", "note": "[Compound 190, (5R,8S)-N-(4,5-Dichloro-2-fluorophenyl)-4-fluoro-6,7,8,9-tetrahydro-5H-5,8-epiminocyclohepta[c]pyridine-10-carboxamide]", "IC50": "< 500"},
      {"smiles": "O=C(Nc1ccc(C(F)(F)F)c(Cl)c1)N1[C@H]2CC[C@@H]1c1ccnc(F)c1C2", "note": "[Compound 85, (5R,8S)-N-(3-Chloro-4-(trifluoromethyl)phenyl)-1-fluoro-6,7,8,9-tetrahydro-5H-5,8-epiminocyclohepta[c]pyridine-10-carboxamide]", "IC50": "< 500"},
      {"smiles": "O=C(Nc1ccc(OC(F)(F)F)cc1)N1C2CCC1c1ccnc(F)c1C2", "note": "(racemic) [Compound 157, (±)-1-Fluoro-N-(4-(trifluoromethoxy)phenyl)-6,7,8,9-tetrahydro-5H-5,8-epiminocyclohepta[c]pyridin-10-carboxamide]", "IC50": "< 500"},
      {"smiles": "O=C(Nc1ccc(Cl)c(Cl)c1)N1C2CCC1c1cnc(=O)[nH]c1C2", "note": "(racemic) [Compound 31, (±)-N-(3,4-Dichlorophenyl)-2-oxo-2,5,6,7,8,9-hexahydro-1H-5,8-epiminocyclohepta[d]pyrimidine-10-carboxamide]", "IC50": "< 500"},
      {"smiles": "O=C(Nc1ccc(Cl)c(Cl)c1)N1[C@H]2CC[C@@H]1c1ccnc(F)c1C2", "note": "[Compound 78, (5R,8S)-N-(3,4-Dichlorophenyl)-1-fluoro-6,7,8,9-tetrahydro-5H-5,8-epiminocyclohepta[c]pyridine-10-carboxamide]", "IC50": "< 500"},
      {"smiles": "O=C(Nc1ccc(C(F)(F)F)c(Cl)c1)N1C2CCC1c1ncncc1C2", "note": "(racemic) [Compound 18, (±)-N-(3-Chloro-4-(trifluoromethyl)phenyl)-6,7,8,9-tetrahydro-5H-6,9-epiminocyclohepta[d]pyrimidine-10-carboxamide]", "IC50": "< 500"},
      {"smiles": "O=C(Nc1cc(Cl)c(C(F)(F)F)cc1F)N1[C@H]2CC[C@@H]1c1ccnc(F)c1C2", "note": "[Compound 101, (5R,8S)-N-(5-Chloro-2-fluoro-4-(trifluoromethyl)phenyl)-1-fluoro-6,7,8,9-tetrahydro-5H-5.8-epiminocyclohepta[c]pyridine-10-carboxamide]", "IC50": "< 500"},
      {"smiles": "O=C(Nc1ccc(Cl)c(Cl)c1)N1[C@H]2CC[C@@H]1c1cncnc1C2", "note": "[Compound 52, (5R,8S)-N-(3,4-Dichlorophenyl)-6,7,8,9-tetrahydro-5H-5,8-epiminocyclohepta[d]pyrimidine-10-carboxamide]", "IC50": "< 500"},
      {"smiles": "N#Cc1ccc(NC(=O)N2C3CCC2c2ccnc(F)c2C3)cc1C(F)(F)F", "note": "(racemic) [Compound 163, (±)-N-(4-Cyano-3-(trifluoromethyl)phenyl)-1-fluoro-6,7,8,9-tetrahydro-5H-5,8-epiminocyclohepta[c]pyridine-10-carboxamide]", "IC50": "< 500"},
      {"smiles": "O=C(Nc1cc(C(F)(F)F)c(Cl)cc1F)N1[C@H]2CC[C@@H]1c1ccnc(F)c1C2", "note": "[Compound 126, (5R,8S)-N-(4-Chloro-2-fluoro-5-(trifluoromethyl)phenyl)-1-fluoro-6,7,8,9-tetrahydro-5H-5,8-epiminocyclohepta[c]pyridine-10-carboxamide]", "IC50": "< 500"},
      {"smiles": "O=C(Nc1ccc(F)c(Cl)c1)N1C2CCC1c1ccnc(F)c1C2", "note": "(racemic) [Compound 178, (±)-N-(3-Chloro-4-fluorophenyl)-1-fluoro-6,7,8,9-tetrahydro-5H-5,8-epiminocyclohepta[c]pyridine-10-carboxamide]", "IC50": "< 500"},
      {"smiles": "O=C(Nc1cc(Cl)c(C(F)(F)F)cc1F)N1[C@H]2CC[C@@H]1c1ccc(F)nc1C2", "note": "[Compound 196, (5R,8S)-N-(5-Chloro-2-fluoro-4-(trifluoromethyl)phenyl)-2-fluoro-6,7,8,9-tetrahydro-5H-5,8-epiminocyclohepta[b]pyridine-10-carboxamide]", "IC50": "< 500"}
    ]},
    {"target": "T1, human recombinant GPR65", "assay": "Human GPR65 cAMP HTRF antagonist assay", "type": "cell-based", "conditions": "1321N1-hrGPR65 cells, assay pH 7.2, cAMP HTRF; read-out: hGPR65 IC50 (activity class)", "excerpt": "as §1, §2, §3, §4, §5, §6, §7", "units": {"IC50": "nM"}, "values": [
      {"smiles": "COC(=O)c1cc(NC(=O)N2[C@H]3CC[C@@H]2c2c[nH]c(=O)cc2C3)ccc1Cl", "note": "[Compound 131, Methyl 2-chloro-5-((6S,9R)-3-oxo-3,5,6,7,8,9-hexahydro-2H-6,9-epiminocyclohepta[c]pyridine-10-carboxamido)benzoate]", "IC50": "500 to 5000"},
      {"smiles": "O=C(Nc1cc(Cl)c(C(F)(F)F)cc1F)N1C2CCC1c1cnncc1C2", "note": "(racemic) [Compound 194, (±)-N-(5-Chloro-2-fluoro-4-(trifluoromethyl)phenyl)-6,7,8,9-tetrahydro-5H-5,8-epiminocyclohepta[d]pyridazine-10-carboxamide]", "IC50": "500 to 5000"},
      {"smiles": "O=C(Nc1ccc(Cl)c(Cl)c1)N1C2CCC1c1cnc(Br)cc1C2", "note": "(racemic) [Compound 99, (±)-3-Bromo-N-(3,4-dichlorophenyl)-6,7,8,9-tetrahydro-5H-6,9-epiminocyclohepta[c]pyridine-10-carboxamide]", "IC50": "> 5000"},
      {"smiles": "COC(=O)c1ccc(NC(=O)N2[C@H]3CC[C@@H]2c2c[nH]c(=O)cc2C3)cc1Cl", "note": "[Compound 130, Methyl 2-chloro-4-((6S,9R)-3-oxo-3,5,6,7,8,9-hexahydro-2H-6,9-epiminocyclohepta[c]pyridine-10-carboxamido)benzoate]", "IC50": "500 to 5000"},
      {"smiles": "O=C(Nc1ccc(-c2cscn2)cc1)N1[C@H]2CC[C@@H]1c1ccnc(F)c1C2", "note": "[Compound 186, (5R,8S)-1-Fluoro-N-(4-(thiazol-4-yl)phenyl)-6,7,8,9-tetrahydro-5H-5,8-epiminocyclohepta[c]pyridine-10-carboxamide]", "IC50": "500 to 5000"},
      {"smiles": "O=C(Nc1ccc(C(F)(F)F)c(Cl)c1)N1C2CCC1c1ccccc1C2", "note": "(racemic) [Compound 54, (±)-N-(3-Chloro-4-(trifluoromethyl)phenyl)-6,7,8,9-tetrahydro-5H-5,8-epiminobenzo[7]annulene-10-carboxamide]", "IC50": "500 to 5000"},
      {"smiles": "O=C(Nc1ccc(F)c(F)c1F)N1C2CCC1c1ccnc(F)c1C2", "note": "(racemic) [Compound 175, (±)-1-Fluoro-N-(2,3,4-trifluorophenyl)-6,7,8,9-tetrahydro-5H-5,8-epiminocyclohepta[c]pyridin-10-carboxamide]", "IC50": "500 to 5000"},
      {"smiles": "O=C(Nc1ccc(C(F)(F)F)c(Cl)c1)N1C2CCC1c1c[nH]c(=O)nc1C2=NO", "note": "(racemic) [Compound 47, (±)-N-(3-Chloro-4-(trifluoromethyl)phenyl)-9-(hydroxyimino)-2-oxo-3,5,6,7,8,9-hexahydro-2H-5,8-epiminocyclohepta[d]pyrimidine-10-carboxamide]", "IC50": "500 to 5000"},
      {"smiles": "O=C(Nc1ccc(C(F)(F)F)cc1)N1C2CCC1c1cncnc1C2", "note": "(racemic) [Compound 1, (±)-N-(4-(Trifluoromethyl)phenyl)-6,7,8,9-tetrahydro-5H-5,8-epiminocyclohepta[d]pyrimidine-10-carboxamide]", "IC50": "500 to 5000"},
      {"smiles": "O=C(Nc1ccc(Cl)c(Cl)c1)N1C2CCC1c1c[n+]([O-])ccc1C2", "note": "(racemic) [Compound 59, (±)-10-((3,4-Dichlorophenyl)carbamoyl)-6,7,8,9-tetrahydro-5H-6,9-epiminocyclohepta[c]pyridine 2-oxide]", "IC50": "> 5000"},
      {"smiles": "O=C(Nc1ccc(Cl)c(Cl)c1)N1C2CCC1c1cnc(Cl)cc1C2", "note": "(racemic) [Compound 100, (±)-3-Chloro-N-(3,4-dichlorophenyl)-6,7,8,9-tetrahydro-5H-6,9-epiminocyclohepta[c]pyridine-10-carboxamide]", "IC50": "500 to 5000"},
      {"smiles": "O=C(Nc1ccc(C(F)(F)F)c(Cl)c1)N1[C@@H]2CC[C@H]1c1cncnc1C2", "note": "[Compound 39, (5S,8R)-N-(3-Chloro-4-(trifluoromethyl)phenyl)-6,7,8,9-tetrahydro-5H-5,8-epiminocyclohepta[d]pyrimidine-10-carboxamide]", "IC50": "> 5000"}
    ]}
  ]
}
